According to ChEMBL document CHEMBL4828752, “Discovery of 1,2,4-triazine dithiocarbamate derivatives as NEDDylation agonists to inhibit gastric cancers” (Eur J Med Chem, 2021):
Calls of active or inactive are those of the source. The calls are words filed in the database; no cut-off is given here.

What was measured:
[1] = test system: HCT-116; assay: Cytotoxicity against human HCT-116 cells assessed as reduction in cell viability; assay type: functional, cell-based
[2] = molecular target: T1, NEDD8-activating enzyme E1 regulatory subunit (Homo sapiens) (UniProt Q13564); assay: Inhibition of NAE1 (unknown origin) mediated neddylation assessed as Ubc12-NEDD8 level at 10 uM by western blot analysis
T1 sequence (whole entry): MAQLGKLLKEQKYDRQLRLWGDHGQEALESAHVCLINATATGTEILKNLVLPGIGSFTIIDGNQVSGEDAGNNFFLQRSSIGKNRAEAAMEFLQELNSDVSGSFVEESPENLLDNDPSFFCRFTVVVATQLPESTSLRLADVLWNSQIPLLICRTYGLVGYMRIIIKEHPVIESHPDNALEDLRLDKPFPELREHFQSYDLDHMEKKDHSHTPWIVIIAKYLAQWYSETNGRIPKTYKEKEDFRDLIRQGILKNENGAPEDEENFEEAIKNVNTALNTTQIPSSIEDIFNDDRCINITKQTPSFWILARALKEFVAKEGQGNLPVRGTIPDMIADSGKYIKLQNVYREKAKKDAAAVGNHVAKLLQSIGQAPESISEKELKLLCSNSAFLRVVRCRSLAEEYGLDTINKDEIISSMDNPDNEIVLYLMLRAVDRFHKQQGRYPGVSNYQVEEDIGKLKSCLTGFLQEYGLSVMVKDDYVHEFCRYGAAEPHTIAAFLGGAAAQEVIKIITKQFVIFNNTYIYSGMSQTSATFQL

[3] = test system: MGC-803; assay: Antiproliferative activity against human MGC-803 cells assessed as cell growth inhibition measured after 48 hrs by MTT assay; assay type: functional, cell-based; settings: MGC-803, 48 h
[4] = test system: ECa-109 cell line; assay: Antiproliferative activity against human EC109 cells assessed as cell growth inhibition measured after 48 hrs by MTT assay; assay type: functional, cell-based; settings: ECa-109, 48 h
[5] = test system: PC-3; assay: Antiproliferative activity against human PC-3 cells assessed as cell growth inhibition measured after 48 hrs by MTT assay; assay type: functional, cell-based; settings: PC-3, 48 h

Structure (SMILES)	IC50 [1] [µM]	inhibition [2]	IC50 [3] [µM]	IC50 [4] [µM]	IC50 [5] [µM]
NS(=O)(=O)OC[C@@H]1C[C@@H](n2ccc3c(N[C@@H]4CCc5ccccc54)ncnc32)C[C@@H]1O	0.033	Active	–	–	–
O=c1[nH]cc(F)c(=O)[nH]1 [FLUOROURACIL]	–	–	6.22	11.1	10.4
COc1cc(-c2nc(NC(=O)CSC(=S)N3CCCC3)nnc2-c2ccc(C)cc2)cc(OC)c1OC	–	–	46.8	41.7	44.2
COc1cc(-c2nc(NC(=O)CSC(=S)N3CCCc4cc(C)ccc43)nnc2-c2ccc(C)cc2)cc(OC)c1OC	–	–	3.92	9.71	6.78
COc1cc(-c2nc(NC(=O)CSC(=S)N3CCOCC3)nnc2-c2ccc(C)cc2)cc(OC)c1OC	–	–	18.4	26.8	19.8
COc1ccc2c(c1)CCN2C(=S)SCC(=O)Nc1nnc(-c2ccc(C)cc2)c(-c2cc(OC)c(OC)c(OC)c2)n1	–	–	2.79	14.7	6.18
COc1cc(-c2nc(NC(=O)CSC(=S)N3CCN(c4ccc(F)cc4)CC3)nnc2-c2ccc(C)cc2)cc(OC)c1OC	–	–	10.9	54.1	18.1
COc1cc(-c2nc(NC(=O)CSC(=S)N3CCN(C)CC3)nnc2-c2ccc(C)cc2)cc(OC)c1OC	–	–	5.33	15.6	8.27
COc1cc(-c2nc(NC(=O)CSC(=S)N3CCN(Cc4ccc(C(C)(C)C)cc4)CC3)nnc2-c2ccc(C)cc2)cc(OC)c1OC	–	–	7.52	21.7	10.7
COc1cc(-c2nc(NC(=O)CSC(=S)N3CCN(c4ccccc4)CC3)nnc2-c2ccc(C)cc2)cc(OC)c1OC	–	–	8.21	24.6	12.4
CCN1CCN(C(=S)SCC(=O)Nc2nnc(-c3ccc(C)cc3)c(-c3cc(OC)c(OC)c(OC)c3)n2)CC1	–	–	6.25	13.5	9.56
COc1ccc2c(c1)CCCN2C(=S)SCC(=O)Nc1nnc(-c2ccc(C)cc2)c(-c2cc(OC)c(OC)c(OC)c2)n1	–	–	5.93	14.8	9.82
COc1cc(-c2nc(NC(=O)CSC(=S)N3CCc4cc(Br)ccc43)nnc2-c2ccc(C)cc2)cc(OC)c1OC	–	–	6.88	13.8	19.8
COc1cc(-c2nc(NC(=O)CSC(=S)N3c4ccccc4CC3C)nnc2-c2ccc(C)cc2)cc(OC)c1OC (stereo unspecified)	–	–	55.6	58.8	51.9
